Literature values, collected in US20230065168A1, “[…] COMBINATION WITH A REPLICATION-DEFICIENT TYPE 5 […] EXPRESSION OF INTERFERON GAMMA FOR THE TREATMENT OF SKIN CANCER” (ASCEND BIOPHARMACEUTICALS LTD, priority 2021, published 2023).

CS(=O)(=O)c1ccc(C(=O)Nc2ccc(Cl)c(-c3ccccn3)c2)c(Cl)c1 [vismodegib, 2-Chloro-N-(4-chloro-3-(pyridin-2-yl)phenyl)-4-(methylsulfonyl)benzamide]
time at which adverse events generally begin to manifest (oral daily treatment): 6-8 weeks
adverse events commonly associated with administration (patients with advanced BCC): muscle spasms, alopecia, dysgeusia, weight loss, fatigue, nausea, diarrhea, decreased appetite, constipation, arthralgia, vomiting, and ageusia
